Measurements as given in patent US20220411419A1, “SMALL MOLECULE MODULATORS OF MHC-I” (RetroVirox, Inc., priority 2018, published 2022).
pEC50: −log10 of the molar value.

Assays:
in vitro = settings: human, uninfected SupT1 cells
[1] = tested on: downmodulation of MHC-I molecules expressed on the surface of HIV infected SupT1 cells; assay: cells; settings: for pEC50: Human immunodeficiency virus 1, SUP-T1, read-out: EC50 for inhibition of MHC-I downmodulation utilizing the R1 parameter; for activity at 100 µM: Human immunodeficiency virus 1, SUP-T1, read-out: R1 @ 100 μM (R1 value for MHC-I downmodulation as % of the vehicle control)

For `Cc1ccc(N(C(=O)COc2cccc3c2OC(C)(C)C3)c2nc(C)cs2)nn1` [Compound 93, 2-((2,2-Dimethyl-2,3-dihydrobenzofuran-7-yl)oxy)-N-(6-methylpyridazin-3-yl)-N-(4-methylthiazol-2-yl)acetamide], the CC50 (in vitro) was over 100 µM, the CC50 at 48 h (in vitro) was over 100 µM and the pEC50 [1] was under 4.60. The activity at 100 µM [1] was 65%.

With `Cc1ccc(N(Cc2ccccn2)C(=O)COc2cccc3c2OC(C)(C)C3)nc1` [Compound 48, 2-((2,2-Dimethyl-2,3-dihydrobenzofuran-7-yl)oxy)-N-(5-methylpyridin-2-yl)-N-(pyridin-2-ylmethyl)acetamide] the CC50 at 48 h (in vitro) was over 100 µM and the pEC50 [1] was 4.68.

`CC1(C)Cc2cccc(OCC(=O)Nc3cccc4nccnc34)c2O1` [Compound 13, 2-((2,2-Dimethyl-2,3-dihydrobenzofuran-7-yl)oxy)-N-(quinoxalin-5-yl) acetamide] showed a CC50 (in vitro) of over 100 µM, a CC50 at 48 h (in vitro) of over 100 µM and a pEC50 [1] of under 4.60. It also gave an activity at 100 µM [1] of 63%.

`COc1c(C)cccc1OCC(=O)N(C)c1nc2c(s1)CCCC2` [Compound 119, 2-(2-Methoxy-3-methylphenoxy)-N-methyl-N-(4,5,6,7-tetrahydrobenzo[d]thiazol-2-yl)acetamide] showed a CC50 at 48 h (in vitro) of over 125 µM and a pEC50 [1] of 6.11.

In the case of `CC1(C)Cc2cccc(OCC(=O)Nc3nc4c(-c5ccncc5)cccc4s3)c2O1` [Compound 101, 2-((2,2-dimethyl-2,3-dihydrobenzofuran-7-yl)oxy)-N-(4-(pyridin-4-yl)benzo[d]thiazol-2-yl)acetamide], the CC50 (in vitro) was over 100 µM, the CC50 at 48 h (in vitro) was over 100 µM and the pEC50 [1] was under 4.60. The activity at 100 µM [1] was 40%.

Work on `CC1(C)Cc2cccc(OCC(=O)Nc3nccc(C(F)(F)F)n3)c2O1` [Compound 28, 2-((2,2-Dimethyl-2,3-dihydrobenzofuran-7-yl)oxy)-N-(4-(trifluoromethyl)pyrimidin-2-yl)acetamide] yielded a CC50 (in vitro) of over 100 µM, a CC50 at 48 h (in vitro) of over 100 µM and a pEC50 [1] of under 4.60. It also gave an activity at 100 µM [1] of 80%.

Molecule `COc1ccccc1OCC(=O)Nc1nc2ccccc2s1` [Compound 187, N-(Benzo[d]thiazol-2-yl)-2-(2-methoxyphenoxy)acetamide] has a CC50 (in vitro) of over 100 µM, a CC50 at 48 h (in vitro) of over 100 µM and a pEC50 [1] of at most 4.60. The activity at 100 µM [1] was 45%.

Work on `CC1(C)Cc2cccc(OCC(=O)Nc3nc(C(=O)N4CCCCC4)cs3)c2O1` [Compound 151, 2-((2,2-Dimethyl-2,3-dihydrobenzofuran-7-yl)oxy)-N-(4-(piperidine-1-carbonyl)thiazol-2-yl)acetamide] yielded a CC50 (in vitro) of over 90 µM, a CC50 at 48 h (in vitro) of over 90 µM and a pEC50 [1] of under 4.60. For the same molecule, the activity at 100 µM [1] was 51%.

Molecule `CCc1cccc(NC(=O)COc2cccc3c2OC(C)(C)C3)n1` [Compound 158, 2-((2,2-Dimethyl-2,3-dihydrobenzofuran-7-yl)oxy)-N-(6-ethylpyridin-2-yl) acetamide] has a CC50 at 48 h (in vitro) of over 125 µM and a pEC50 [1] of 4.89.

`CC1(C)Cc2cccc(OCC(=O)Nc3nc4ccc(F)cc4s3)c2O1` [Compound 183, 2-((2,2-Dimethyl-2,3-dihydrobenzofuran-7-yl)oxy)-N-(6-fluorobenzo[d]thiazol-2-yl)acetamide] showed a CC50 at 48 h (in vitro) of over 100 µM and a pEC50 [1] of 5.38.

For `C=C(C)c1ccc(NC(=O)COc2cccc3c2OC(C)(C)C3)nn1` [Compound 86, 2-((2,2-Dimethyl-2,3-dihydrobenzofuran-7-yl)oxy)-N-(6-(prop-1-en-2-yl)pyridazin-3-yl)acetamide], the CC50 at 48 h (in vitro) was over 100 µM and the pEC50 [1] was 5.96.

`Cc1csc(N(C(=O)COc2cccc3c2OC(C)(C)C3)c2ccc(Cl)cc2)n1` [Compound 59, N-(4-Chlorophenyl)-2-((2,2-dimethyl-2,3-dihydrobenzofuran-7-yl)oxy)-N-(4-methylthiazol-2-yl)acetamide] showed a CC50 at 48 h (in vitro) of over 100 µM and a pEC50 [1] of 6.07.

`Cc1csc(N(Cc2ccncc2)C(=O)COc2cccc3c2OC(C)(C)C3)n1` [Compound 35, 2-((2,2-Dimethyl-2,3-dihydrobenzofuran-7-yl)oxy)-N-(4-methylthiazol-2-yl)-N-(pyridin-4-ylmethyl)acetamide] showed a CC50 at 48 h (in vitro) of over 100 µM and a pEC50 [1] of 5.85.

`CC1(C)Cc2cccc(OCC(=O)N(Cc3ccccc3)c3nc4c(F)cccc4s3)c2O1` [Compound 32, N-Benzyl-2-((2,2-dimethyl-2,3-dihydrobenzofuran-7-yl)oxy)-N-(4-fluorobenzo[d]thiazol-2-yl)acetamide] gave a CC50 at 48 h (in vitro) of over 100 µM and a pEC50 [1] of 8.05.

Work on `Cc1cccnc1CN(C(=O)COc1cccc2c1OC(C)(C)C2)c1nc2c(s1)CCCC2` [Compound 42, 2-((2,2-Dimethyl-2,3-dihydrobenzofuran-7-yl)oxy)-N-((3-methylpyridin-2-yl)methyl)-N-(4,5,6,7-tetrahydrobenzo[d]thiazol-2-yl)acetamide] yielded a CC50 at 48 h (in vitro) of over 125 µM and a pEC50 [1] of 5.14.

`CCc1ccc(NC(=O)COc2cccc3c2OC(C)(C)C3)nn1` [Compound 85, 2-((2,2-Dimethyl-2,3-dihydrobenzofuran-7-yl)oxy)-N-(6-ethylpyridazin-3-yl)acetamide] gave a CC50 at 48 h (in vitro) of over 100 µM and a pEC50 [1] of 6.42.

With `CC1(C)Cc2cccc(OCC(=O)Nc3nc4c(Br)cccc4s3)c2O1` [Compound 1, N-(4-bromobenzo[d]thiazol-2-yl)-2-((2,2-dimethyl-2,3-dihydrobenzofuran-7-yl)oxy)acetamide] the CC50 at 48 h (in vitro) was over 90 µM and the pEC50 [1] was 6.92.

In the case of `Cc1c(Cl)cccc1OCC(=O)N(C)c1nc2c(s1)CCCC2` [Compound 129, 2-(3-Chloro-2-methylphenoxy)-N-methyl-N-(4,5,6,7-tetrahydrobenzo[d]thiazol-2-yl)acetamide], the CC50 at 48 h (in vitro) was over 125 µM and the pEC50 [1] was under 4.60.

With `CC1(C)Cc2cccc(OCC(=O)Nc3cccc(Br)n3)c2O1` [Compound 30, N-(6-Bromopyridin-2-yl)-2-((2,2-dimethyl-2,3-dihydrobenzofuran-7-yl)oxy)acetamide] the CC50 at 48 h (in vitro) was over 125 µM and the pEC50 [1] was 4.70.

`CC1(C)Cc2cccc(OCC(=O)Nc3cc4ccccc4cn3)c2O1` [Compound 17, 2-((2,2-Dimethyl-2,3-dihydrobenzofuran-7-yl)oxy)-N-(isoquinolin-3-yl) acetamide] showed a CC50 at 48 h (in vitro) of over 125 µM and a pEC50 [1] of 4.66.

In the case of `COc1ccc(OCC(=O)N(C)c2nc3c(s2)CCCC3)cc1` [Compound 127, 2-(4-Methoxyphenoxy)-N-methyl-N-(4,5,6,7-tetrahydrobenzo[d]thiazol-2-yl) acetamide], the CC50 at 48 h (in vitro) was over 125 µM and the pEC50 [1] was under 4.60.

For `CC1(C)Cc2cccc(OCC(=O)Nc3ccccn3)c2O1` [Compound 7, 2-((2,2-Dimethyl-2,3-dihydrobenzofuran-7-yl)oxy)-N-(pyridin-2-yl) acetamide], the CC50 (in vitro) was over 100 µM, the CC50 at 48 h (in vitro) was over 100 µM and the pEC50 [1] was under 4.60. For the same molecule, the activity at 100 µM [1] was 34%.

`COc1ccccc1OCC(=O)Nc1nc2c(Br)cccc2s1` [Compound 193, N-(4-Bromobenzo[d]thiazol-2-yl)-2-(2-methoxyphenoxy)acetamide] showed a CC50 (in vitro) of over 90 µM, a CC50 at 48 h (in vitro) of over 90 µM and a pEC50 [1] of under 4.60. For the same molecule, the activity at 100 µM [1] was 58%.

Molecule `Cc1cc(NC(=O)COc2cccc3c2OC(C)(C)C3)ncc1Br` [Compound 76, N-(5-Bromo-4-methylpyridin-2-yl)-2-((2,2-dimethyl-2,3-dihydrobenzofuran-7-yl)oxy)acetamide] has a CC50 at 48 h (in vitro) of over 125 µM and a pEC50 [1] of 4.64.

In the case of `O=C(COc1cccc2c1CCN2)Nc1nc2c(s1)CCCC2` [Compound 135, 2-(Indolin-4-yloxy)-N-(4,5,6,7-tetrahydrobenzo[d]thiazol-2-yl)acetamide], the CC50 at 48 h (in vitro) was over 125 µM and the pEC50 [1] was 7.06.

For `CCc1ccc(N(C)C(=O)COc2cccc3c2OC(C)(C)C3)nn1` [Compound 83, 2-((2,2-Dimethyl-2,3-dihydrobenzofuran-7-yl)oxy)-N-(6-ethylpyridazin-3-yl)-N-methylacetamide], the CC50 at 48 h (in vitro) was over 125 µM and the pEC50 [1] was 4.89.

For `CC1(C)Cc2cccc(OCC(=O)Nc3nc4ccccc4s3)c2O1` [Compound 143, N-(benzo[d]thiazol-2-yl)-2-((2,2-dimethyl-2,3-dihydrobenzofuran-7-yl)oxy)acetamide], the CC50 at 48 h (in vitro) was over 100 µM and the pEC50 [1] was 6.39.

Molecule `COc1c(Br)cccc1OCC(=O)N(C)c1nc2c(s1)CCCC2` [Compound 118, 2-(3-Bromo-2-methoxyphenoxy)-N-methyl-N-(4,5,6,7-tetrahydrobenzo[d]thiazol-2-yl)acetamide] has a CC50 at 48 h (in vitro) of over 125 µM and a pEC50 [1] of 5.68.

With `Cc1ccnc(CN(C(=O)COc2cccc3c2OC(C)(C)C3)c2nc3c(s2)CCCC3)c1` [Compound 41, 2-((2,2-Dimethyl-2,3-dihydrobenzofuran-7-yl)oxy)-N-((4-methylpyridin-2-yl)methyl)-N-(4,5,6,7-tetrahydrobenzo[d]thiazol-2-yl)acetamide] the CC50 at 48 h (in vitro) was over 125 µM and the pEC50 [1] was 7.70.

With `COc1ccccc1OCC(=O)Nc1nc2cc(F)ccc2s1` [Compound 196, N-(5-Fluorobenzo[d]thiazol-2-yl)-2-(2-methoxyphenoxy)acetamide] the CC50 (in vitro) was over 100 µM, the CC50 at 48 h (in vitro) was over 100 µM and the pEC50 [1] was under 4.60. The activity at 100 µM [1] was 31%.

For `COc1cccc2sc(NC(=O)COc3cccc4c3OC(C)(C)C4)nc12` [Compound 146, 2-((2,2-Dimethyl-2,3-dihydrobenzofuran-7-yl)oxy)-N-(4-methoxybenzo[d]thiazol-2-yl)acetamide], the CC50 at 48 h (in vitro) was over 10 µM and the pEC50 [1] was 5.77.

`C=Cc1ccc(N(C)C(=O)COc2cccc3c2OC(C)(C)C3)nc1` [Compound 79, 2-((2,2-Dimethyl-2,3-dihydrobenzofuran-7-yl)oxy)-N-methyl-N-(5-vinylpyridin-2-yl)acetamide] gave a CC50 at 48 h (in vitro) of over 125 µM and a pEC50 [1] of 5.30.

For `CC1(C)Cc2cccc(CCC(=O)Nc3nc4c(F)cccc4s3)c2O1` [Compound 107, 3-(2,2-Dimethyl-2,3-dihydrobenzofuran-7-yl)-N-(4-fluorobenzo[d]thiazol-2-yl)propanamide], the CC50 at 48 h (in vitro) was over 100 µM and the pEC50 [1] was 6.43.

Molecule `COc1ccc(N(C(=O)COc2cccc3c2OC(C)(C)C3)c2nc(C)cs2)cc1` [Compound 62, 2-((2,2-Dimethyl-2,3-dihydrobenzofuran-7-yl)oxy)-N-(4-methoxyphenyl)-N-(4-methylthiazol-2-yl)acetamide] has a CC50 at 48 h (in vitro) of over 100 µM and a pEC50 [1] of 6.32.
